This is an account of results in US5736517A, “Treatment of cancer with peptides” (Biomeasure, Inc., priority 1993, dated 1998).

Where a SMILES comes first, the peptide text is derived from it. [ ]: non-standard residue; d: D form. The star is where a group is joined. X1 = CC(C)C[C@@H](CN[C@@H](CC(C)C)C(N)=O)N*; pGlu = O=C1CC[C@@H](C(=O)O)N1

Data set [1] concerns the target T1, bombesin receptors of mouse colon cancer (MC-26) cells (Mus musculus, UniProt P21729).
T1 construct: endogenous in cells; host or cells: MC-26 mouse colon carcinoma (tumour membranes)
Description: 125I-GRP binding to MC-26 tumor membranes. To be noted: 20 pM 125I-GRP. As to the method: The bombesin analog BIM-26147 was tested for the ability to inhibit growth of the mouse colon tumor MC-26.
(§1) For both FIGS. 1 and 2, aliquots of tumor membranes (150 μg protein) were incubated with 20 pM of ^125 I-GRP in the presence of increasing concentrations of peptides, and the displacement of specifically bound ^125 I-GRP to MC-26 tumor membranes by increasing concentrations of peptides is presented as a percent of maximum specific binding of ^125 I-GRP. Each data point is the mean of two observations within an experiment, and represents two experiments. Table 1 presents the IC50 for ^125 I-GRP binding to mouse colon cancer (MC-26) cells and normal colon mucosal cells in the presence of bombesin receptor antagonists. The data in Table 1 was calculated from FIGS. 1 and 2. The fold difference is relative to bombesin (BBS) values.

Data set [2] deals with T2, bombesin receptors of normal mouse colon mucosal membranes (Mus musculus, UniProt P21729).
T2 construct: from tissue; host or cells: normal mouse colon mucosa (membranes)
T2 sequence (P21729 whole entry): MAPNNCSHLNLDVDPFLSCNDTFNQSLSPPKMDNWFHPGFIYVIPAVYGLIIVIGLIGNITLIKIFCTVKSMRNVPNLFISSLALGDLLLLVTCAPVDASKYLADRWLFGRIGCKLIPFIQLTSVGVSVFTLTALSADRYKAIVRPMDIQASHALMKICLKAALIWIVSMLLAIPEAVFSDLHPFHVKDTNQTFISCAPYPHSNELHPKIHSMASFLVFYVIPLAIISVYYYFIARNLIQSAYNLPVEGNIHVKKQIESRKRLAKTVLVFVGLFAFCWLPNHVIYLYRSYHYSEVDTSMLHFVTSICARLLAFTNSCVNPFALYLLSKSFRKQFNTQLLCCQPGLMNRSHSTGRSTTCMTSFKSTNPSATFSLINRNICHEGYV
Description: 125I-GRP binding to normal mouse colon mucosal membranes. The note with it: 20 pM 125I-GRP. As to the method:
as §1

In data set [3] the test system is CX-5 human colon tumor. Description: CX-5 human colon tumor, 11-day subrenal capsule assay (SRCA). Type of data set: in vivo. To be noted: tumor-bearing athymic nude mice, both CX-5 tests (Tables 2 and 3). The text has this: The human colon tumor used for testing was the CX-5 tumor, which was surgically removed from a human and carried as an implant in athymic nude mice. The patient had been untreated prior to surgical removal of the tissue specimen. […] CX-5 was a moderately well-differentiated, mucin secreting adenocarcinoma. The tumor is arranged in acini lined by one or more layers of lining cells which have round to oval vesicular nuclei containing prominent nucleoli. There are frequent mitoses, and the cells have eosinophilic cytoplasm. The acini contain abundant amounts of mucin.
We briefly describe subrenal capsule assay as follows. Tumors, 6-15 mm in diameter, were removed from the athymic mice and immediately placed in RPMI medium (Gibco, Grand Island, N.Y.) at room temperature. In the case of the larger tumors (over 10 mm in diameter), where the central parts frequently contained necrotic tissue, viable tissue was dissected out and placed in a separate Petri dish. The tissue pieces, while immersed in the medium, were cut with scalpels into cubes of approximately 1 mm.
Nude mice were anesthetized by i.p. injection of chloral hydrate (0.35-0.45 ml of a 0.22M solution). A shallow incision was made in the left flank and the kidney was exteriorized. […] Immediately after implantation,the tumor size was measured as described below. […]

T1 sequence (P21729 whole entry): as above

Turning to `CCCNC(=O)[C@H](CC(C)C)NC(=O)[C@H](Cc1cnc[nH]1)NC(=O)CNC(=O)[C@@H](NC(=O)[C@H](C)NC(=O)[C@H](Cc1c[nH]c2ccccc12)NC(=O)[C@H](CCC(N)=O)NC(=O)[C@H](N)Cc1ccccc1)C(C)C` [BIM-26147, D-Phe-Gln-Trp-Ala-Val-Gly-His-Leu-propylamide], the IC50 came out at 4.5 nM in data set [1] and 1.6 nM in data set [2].
Turning to `CC(C)C[C@@H](CN[C@@H](Cc1ccccc1)C(N)=O)NC(=O)[C@H](Cc1c[nH]cn1)NC(=O)CNC(=O)[C@@H](NC(=O)[C@H](C)NC(=O)[C@H](Cc1c[nH]c2ccccc12)NC(=O)[C@H](CCC(N)=O)NC(=O)[C@H](N)Cc1ccc(Cl)cc1)C(C)C` [BIM-26159, D-Cpa-Gln-Trp-Ala-Val-Gly-His-Leu.psi.[CH2 NH]Phe-NH2], the “effect on body weight” value in data set [3] was “no measurable effect on body weight”.
On to `CC(C)C[C@@H](CN[C@@H](CC(C)C)C(N)=O)NC(=O)[C@H](Cc1cnc[nH]1)NC(=O)CNC(=O)[C@@H](NC(=O)[C@H](C)NC(=O)[C@H](Cc1c[nH]c2ccccc12)NC(=O)[C@H](CCC(N)=O)NC(=O)[C@H](CC(N)=O)NC(=O)CNC(=O)[C@H](CC(C)C)NC(=O)[C@H](CCCN=C(N)N)NC(=O)[C@H](CCC(N)=O)NC(=O)[C@@H]1CCC(=O)N1)C(C)C` [Leu^13 --.psi.(CH2,NH)--Leu^14 --BBS, Leu^13 .psi.[CH2 NH]Leu^14 bombesin] ([pGlu]QRLGNQWAVGH-X1), for which the IC50 is 80 nM in data set [1] and 15 nM in data set [2].

In general, IC50 refers to the concentration at which inhibition is half-maximal. A high value points to weaker potency.
